Reference: publication PMC11277489, “Novel Piperazine Derivatives of Vindoline as Anticancer Agents” (International Journal of Molecular Sciences, 2024)

These compounds were tested on HOP-62 (assay: NCI60 five-dose screen, Non-small Cell Lung Cancer). Conditions: Homo sapiens; HOP-62, Non-small Cell Lung Cancer; five-dose screen; read-out: GI50.
Format: cell-based

Structure (SMILES)	GI50 [µM]
CC[C@]12C=CCN3CC[C@@]4(c5ccc(OC)cc5N(C)[C@H]4[C@@](O)(C(=O)OC)[C@@H]1OC(=O)CCCN1CCN(Cc4ccc(F)cc4)CC1)[C@@H]32 [Compound 24]	10.2

These compounds were tested on HOP-92 (assay: NCI60 five-dose screen, Non-small Cell Lung Cancer). Conditions: Homo sapiens; HOP-92, Non-small Cell Lung Cancer; five-dose screen; read-out: GI50.
Format: cell-based

Structure (SMILES)	GI50 [µM]
CC[C@]12C=CCN3CC[C@@]4(c5ccc(OC)cc5N(C)[C@H]4[C@@](O)(C(=O)OC)[C@@H]1OC(=O)CCCN1CCN(Cc4ccc(F)cc4)CC1)[C@@H]32 [Compound 24]	1.66

Each compound was assayed on NCI-H522 (assay: NCI60 five-dose screen, Non-small Cell Lung Cancer). Conditions: Homo sapiens; NCI-H522, Non-small Cell Lung Cancer; five-dose screen; read-out: GI50.
Format: cell-based

Structure (SMILES)	GI50 [µM]
CC[C@]12C=CCN3CC[C@@]4(c5ccc(OC)cc5N(C)[C@H]4[C@@](O)(C(=O)OC)[C@@H]1OC(=O)CCCN1CCN(Cc4ccc(F)cc4)CC1)[C@@H]32 [Compound 24]	13.8

The compounds below were run on UACC-257 (assay: NCI60 five-dose screen, Melanoma). Conditions: Homo sapiens; UACC-257, Melanoma; five-dose screen; read-out: GI50.
Format: cell-based

Structure (SMILES)	GI50 [µM]
CC[C@]12C=CCN3CC[C@@]4(c5ccc(OC)cc5N(C)[C@H]4[C@@](O)(C(=O)OC)[C@@H]1OC(=O)CCCN1CCN(Cc4ccc(F)cc4)CC1)[C@@H]32 [Compound 24]	2

What follows are compounds tested on MOLT-4 (assay: NCI60 five-dose screen, Leukemia). Conditions: Homo sapiens; MOLT-4, Leukemia; five-dose screen; read-out: GI50.
Format: cell-based

Structure (SMILES)	GI50 [µM]
CC[C@]12C=CCN3CC[C@@]4(c5ccc(OC)cc5N(C)[C@H]4[C@@](O)(C(=O)OC)[C@@H]1OC(=O)CCCN1CCN(Cc4ccc(F)cc4)CC1)[C@@H]32 [Compound 24]	1.74

These compounds were tested on CAKI-1 (assay: NCI60 five-dose screen, Renal Cancer). Conditions: Homo sapiens; CAKI-1, Renal Cancer; five-dose screen; read-out: GI50.
Format: cell-based

Structure (SMILES)	GI50 [µM]
CC[C@]12C=CCN3CC[C@@]4(c5ccc(OC)cc5N(C)[C@H]4[C@@](O)(C(=O)OC)[C@@H]1OC(=O)CCCN1CCN(Cc4ccc(F)cc4)CC1)[C@@H]32 [Compound 24]	2.24

What follows are compounds tested on MCF7 (assay: NCI60 five-dose screen, Breast Cancer). Conditions: Homo sapiens; MCF7, Breast Cancer; five-dose screen; read-out: GI50.
Format: cell-based

Structure (SMILES)	GI50 [µM]
CC[C@]12C=CCN3CC[C@@]4(c5ccc(OC)cc5N(C)[C@H]4[C@@](O)(C(=O)OC)[C@@H]1OC(=O)CCCN1CCN(Cc4ccc(F)cc4)CC1)[C@@H]32 [Compound 24]	3.98

These compounds were tested on HT29 (assay: NCI60 five-dose screen, Colon Cancer). Conditions: Homo sapiens, HT-29; HT29, Colon Cancer; five-dose screen; read-out: GI50.
Format: cell-based

Structure (SMILES)	GI50 [µM]
CC[C@]12C=CCN3CC[C@@]4(c5ccc(OC)cc5N(C)[C@H]4[C@@](O)(C(=O)OC)[C@@H]1OC(=O)CCCN1CCN(Cc4ccc(F)cc4)CC1)[C@@H]32 [Compound 24]	3.8

What follows are compounds tested on RXF 393 (assay: NCI60 five-dose screen, Renal Cancer). Conditions: Homo sapiens, RXF 393, Renal Cancer.
Format: cell-based

Structure (SMILES)	GI50 [µM]
CC[C@]12C=CCN3CC[C@@]4(c5ccc(OC)cc5N(C)[C@H]4[C@@](O)(C(=O)OC)[C@@H]1OC(=O)CCCN1CCN(Cc4ccc(F)cc4)CC1)[C@@H]32 [Compound 24]	1

Each compound was assayed on SNB-75 (assay: NCI60 five-dose screen, CNS Cancer). Conditions: Homo sapiens; SNB-75, CNS Cancer; five-dose screen; read-out: GI50.
Format: cell-based

Structure (SMILES)	GI50 [µM]
CC[C@]12C=CCN3CC[C@@]4(c5ccc(OC)cc5N(C)[C@H]4[C@@](O)(C(=O)OC)[C@@H]1OC(=O)CCCN1CCN(Cc4ccc(F)cc4)CC1)[C@@H]32 [Compound 24]	1.12

Each compound was assayed on KM12 (assay: NCI60 five-dose screen, Colon Cancer). Conditions: Homo sapiens; KM12, Colon Cancer; five-dose screen; read-out: GI50.
Format: cell-based

Structure (SMILES)	GI50 [µM]
CC[C@]12C=CCN3CC[C@@]4(c5ccc(OC)cc5N(C)[C@H]4[C@@](O)(C(=O)OC)[C@@H]1OC(=O)CCCN1CCN(Cc4ccc(F)cc4)CC1)[C@@H]32 [Compound 24]	10.5

These compounds were tested on SK-MEL-28 (assay: NCI60 five-dose screen, Melanoma). Conditions: Homo sapiens; SK-MEL-28, Melanoma; five-dose screen; read-out: GI50.
Format: cell-based

Structure (SMILES)	GI50 [µM]
CC[C@]12C=CCN3CC[C@@]4(c5ccc(OC)cc5N(C)[C@H]4[C@@](O)(C(=O)OC)[C@@H]1OC(=O)CCCN1CCN(Cc4ccc(F)cc4)CC1)[C@@H]32 [Compound 24]	4.68

What follows are compounds tested on NCI-H322M (assay: NCI60 five-dose screen, Non-small Cell Lung Cancer). Conditions: Homo sapiens, Non-small Cell Lung Cancer, five-dose screen, read-out: GI50.
Format: cell-based

Structure (SMILES)	GI50 [µM]
CC[C@]12C=CCN3CC[C@@]4(c5ccc(OC)cc5N(C)[C@H]4[C@@](O)(C(=O)OC)[C@@H]1OC(=O)CCCN1CCN(Cc4ccc(F)cc4)CC1)[C@@H]32 [Compound 24]	8.32

The compounds below were run on SK-MEL-2 (assay: NCI60 five-dose screen, Melanoma). Conditions: Homo sapiens; SK-MEL-2, Melanoma; five-dose screen; read-out: GI50.
Format: cell-based

Structure (SMILES)	GI50 [µM]
CC[C@]12C=CCN3CC[C@@]4(c5ccc(OC)cc5N(C)[C@H]4[C@@](O)(C(=O)OC)[C@@H]1OC(=O)CCCN1CCN(Cc4ccc(F)cc4)CC1)[C@@H]32 [Compound 24]	15.1

Each compound was assayed on EKVX (assay: NCI60 five-dose screen, Non-small Cell Lung Cancer). Conditions: Homo sapiens, Non-small Cell Lung Cancer, five-dose screen, read-out: GI50.
Format: cell-based

Structure (SMILES)	GI50 [µM]
CC[C@]12C=CCN3CC[C@@]4(c5ccc(OC)cc5N(C)[C@H]4[C@@](O)(C(=O)OC)[C@@H]1OC(=O)CCCN1CCN(Cc4ccc(F)cc4)CC1)[C@@H]32 [Compound 24]	12

These compounds were tested on OVCAR-8 (assay: NCI60 five-dose screen, Ovarian Cancer). Conditions: Homo sapiens; OVCAR-8, Ovarian Cancer; five-dose screen; read-out: GI50.
Format: cell-based

Structure (SMILES)	GI50 [µM]
CC[C@]12C=CCN3CC[C@@]4(c5ccc(OC)cc5N(C)[C@H]4[C@@](O)(C(=O)OC)[C@@H]1OC(=O)CCCN1CCN(Cc4ccc(F)cc4)CC1)[C@@H]32 [Compound 24]	14.5

What follows are compounds tested on RPMI-8226 (assay: NCI60 five-dose screen, Leukemia). Conditions: Homo sapiens; RPMI-8226, Leukemia; five-dose screen; read-out: GI50.
Format: cell-based

Structure (SMILES)	GI50 [µM]
CC[C@]12C=CCN3CC[C@@]4(c5ccc(OC)cc5N(C)[C@H]4[C@@](O)(C(=O)OC)[C@@H]1OC(=O)CCCN1CCN(Cc4ccc(F)cc4)CC1)[C@@H]32 [Compound 24]	4.17

What follows are compounds tested on CCRF-CEM (assay: NCI60 five-dose screen, Leukemia). Conditions: Homo sapiens, Leukemia, five-dose screen, read-out: GI50.
Format: cell-based

Structure (SMILES)	GI50 [µM]
CC[C@]12C=CCN3CC[C@@]4(c5ccc(OC)cc5N(C)[C@H]4[C@@](O)(C(=O)OC)[C@@H]1OC(=O)CCCN1CCN(Cc4ccc(F)cc4)CC1)[C@@H]32 [Compound 24]	4.07

Each compound was assayed on SF-539 (assay: NCI60 five-dose screen, CNS Cancer). Conditions: Homo sapiens; SF-539, CNS Cancer; five-dose screen; read-out: GI50.
Format: cell-based

Structure (SMILES)	GI50 [µM]
CC[C@]12C=CCN3CC[C@@]4(c5ccc(OC)cc5N(C)[C@H]4[C@@](O)(C(=O)OC)[C@@H]1OC(=O)CCCN1CCN(Cc4ccc(F)cc4)CC1)[C@@H]32 [Compound 24]	10.5

Each compound was assayed on SNB-19 (assay: NCI60 five-dose screen, CNS Cancer). Conditions: Homo sapiens; SNB-19, CNS Cancer; five-dose screen; read-out: GI50.
Format: cell-based

Structure (SMILES)	GI50 [µM]
CC[C@]12C=CCN3CC[C@@]4(c5ccc(OC)cc5N(C)[C@H]4[C@@](O)(C(=O)OC)[C@@H]1OC(=O)CCCN1CCN(Cc4ccc(F)cc4)CC1)[C@@H]32 [Compound 24]	11.5

What follows are compounds tested on NCI-H226 (assay: NCI60 five-dose screen, Non-small Cell Lung Cancer). Conditions: Homo sapiens; NCI-H226, Non-small Cell Lung Cancer; five-dose screen; read-out: GI50.
Format: cell-based

Structure (SMILES)	GI50 [µM]
CC[C@]12C=CCN3CC[C@@]4(c5ccc(OC)cc5N(C)[C@H]4[C@@](O)(C(=O)OC)[C@@H]1OC(=O)CCCN1CCN(Cc4ccc(F)cc4)CC1)[C@@H]32 [Compound 24]	10.5
